This is an account of results in paper PMC6862662, “In Vitro Evaluation and Docking Studies of 5-oxo-5H-furo[3,2-g]chromene-6-carbaldehyde Derivatives as Potential Anti-Alzheimer’s Agents” (International Journal of Molecular Sciences, 2019).

Experiment [1] is described as follows: DPPH radical scavenging activity assay. The conditions noted are these: triplicate, preliminary. The method, then:
DPPH radical scavenging activity of compounds 2b, 2f, 3b, 3d and 3f was evaluated following the literature method. Ascorbic acid (Sigma Aldrich, Saint Louis, Missouri, USA) was used as a positive control. The test compounds and controls at various concentrations ranging from (0 µM to 40 µM) in DMSO were mixed with a solution of DPPH (0.20 mM) in methanol. The mixtures were incubated in the dark for 45 min and the absorbances were recorded at 512 nm using Varioskan flash microplate spectrophotometer reader. All tests and analyses were run in triplicate and averaged. The inhibition was calculated in terms of percentage using the formula below:(5) DPPH radical scavenged (%)=AbC−AbS/AbC×100, where AbC is absorbance of control and AbS the absorbance of the test sample.

Experiment [2] concerns the target T1, AChE (Homo sapiens, UniProt P22303).
T1 construct: purchased BL, purchased through BIOCOM Africa (Pty) Ltd. 768104
Briefly: biochemical. The settings on record: for IC50: Ellman's method, triplicate, read-out: IC50 (µM) AChE; for SI BChE/AChE: Selectivity index IC50 (BChE)/IC50 (AChE). (DTNB colorimetry detects thiols as they appear.)

In experiment [3] the target is T2, BChE (Homo sapiens, UniProt P06276).
T2 construct: purchased cloud-clone corp., purchased through BIOCOM Africa (Pty) Ltd. RPC348Hu0 2_100
T2 sequence (P06276 29-602): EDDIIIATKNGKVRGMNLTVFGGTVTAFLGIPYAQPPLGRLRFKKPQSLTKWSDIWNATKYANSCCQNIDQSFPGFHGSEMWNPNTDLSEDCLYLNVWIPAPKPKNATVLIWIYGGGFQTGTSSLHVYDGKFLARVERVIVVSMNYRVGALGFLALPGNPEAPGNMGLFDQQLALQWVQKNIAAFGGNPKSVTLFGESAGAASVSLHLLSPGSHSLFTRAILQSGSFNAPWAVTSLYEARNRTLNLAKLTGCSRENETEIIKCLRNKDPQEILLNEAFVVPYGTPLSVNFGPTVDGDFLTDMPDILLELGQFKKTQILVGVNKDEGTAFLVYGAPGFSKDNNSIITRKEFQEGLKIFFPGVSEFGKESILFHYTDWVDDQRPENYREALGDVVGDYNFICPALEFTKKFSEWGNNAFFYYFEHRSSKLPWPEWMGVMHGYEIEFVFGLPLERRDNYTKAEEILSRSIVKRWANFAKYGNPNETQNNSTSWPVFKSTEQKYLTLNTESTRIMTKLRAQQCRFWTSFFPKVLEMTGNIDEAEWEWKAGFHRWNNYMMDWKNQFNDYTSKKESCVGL
Briefly: biochemical. The conditions noted are these: for IC50: Ellman's method, triplicate; for SI AChE/BChE: Selectivity index IC50 (AChE)/IC50 (BChE).
Method: The mixtures were incubated for 15 min at RT. The reaction was initiated by adding of 10 µL of mixture solution of 5 mM 5,50-dithio-bis-nitrobenzoic acid (DTNB) in 50 mM tris buffer (pH 7.7) and 10 µL acetylthiocholine (ASCh; 5 mM) in 50 mM tris buffer, pH 7.7 into the wells containing the mixtures. The hydrolysis of ASCh was determined by monitoring the formation of the yellow 5-thio-2-nitrobenzoate anion resulting from reaction of DTNB with thiocholines (SCh).
The IC50 values were determined graphically from inhibition curves (inhibitor concentration and absorbance) using the graph pad prism.

The target of experiment [4] is T3, human recombinant BACE-1 (Homo sapiens, UniProt P56817).
T3 construct: purchased Pan Vera; host or cells: baculovirus-expressed
T3 sequence (P56817 46-501): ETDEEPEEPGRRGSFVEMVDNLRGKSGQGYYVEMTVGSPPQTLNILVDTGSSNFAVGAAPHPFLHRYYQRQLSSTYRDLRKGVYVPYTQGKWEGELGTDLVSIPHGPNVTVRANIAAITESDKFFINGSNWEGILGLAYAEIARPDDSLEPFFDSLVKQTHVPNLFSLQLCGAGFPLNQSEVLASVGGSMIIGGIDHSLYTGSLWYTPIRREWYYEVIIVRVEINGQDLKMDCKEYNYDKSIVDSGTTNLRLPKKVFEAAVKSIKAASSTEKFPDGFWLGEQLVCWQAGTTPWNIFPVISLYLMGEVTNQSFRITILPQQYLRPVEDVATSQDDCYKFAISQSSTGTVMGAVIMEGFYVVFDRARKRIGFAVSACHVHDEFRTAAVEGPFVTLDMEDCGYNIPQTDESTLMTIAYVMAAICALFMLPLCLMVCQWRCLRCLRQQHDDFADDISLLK
The experiment is described as follows: β-secretase FRET inhibitory assay. In kind it is biochemical. The conditions noted are these: triplicate.

In experiment [5] the target is T1, AChE. Briefly: Kinetic studies against AChE (Lineweaver–Burk and Dixon plots). The experiment is classed as biochemical. The conditions noted are these: for Ki: Dixon plots; for mode of inhibition against AChE: Lineweaver–Burk and Dixon plots. The method, then: (§1) Compounds 2f, 2b, 2f, 3b, 3d and 3f were selected for the kinetic studies with substrate concentrations 0.1, 0.5, 2. 5 and 5 µM for ChEs following procedures described in our previous investigation. The Lineweaver–Burk plots (plots of the inverse of velocity (1/v) against the inverse of the substrate concentration (1/[S])) were used to ascertain the mode of inhibition of these compounds.

Experiment [6] has as its target T2, BChE. Briefly: Kinetic studies against BChE (Lineweaver–Burk and Dixon plots). The experiment is classed as biochemical. The conditions noted are these: for Ki: Dixon plots; for mode of inhibition against BChE: Lineweaver–Burk and Dixon plots. The method, then:
as §1

Experiment [7] relates to breast cancer cell line MCF-7. The experiment is described as follows: MTT cytotoxicity assay, MCF-7. In kind it is cell-based. The conditions noted are these: Homo sapiens, MCF7, 24 h, read-out: IC50 against MCF-7 cancer cell line.
Method: Briefly, the cells were seeded in 96-well plate at a density of 20 × 10^3 cells per well and then incubated at 37 °C in 5% CO2 to allow cell attachment. […] An equal volume of medium was used as the control treatment. After treatment for 24 h, 10 μL MTT (5 mg/mL) was added to each well and the plate was further incubated for 4 h later. The supernatant was removed and 100 μL of DMSO was added to each well to dissolve the resulting formazan crystals. The absorbance was read at 570 nm using the Varioskan flash microplate spectrophotometer reader. The percentages of cell viability were used to determine the IC50 values.

Where a name gives a salt, the structure may show the parent alone.

T1 sequence (P22303 32-614): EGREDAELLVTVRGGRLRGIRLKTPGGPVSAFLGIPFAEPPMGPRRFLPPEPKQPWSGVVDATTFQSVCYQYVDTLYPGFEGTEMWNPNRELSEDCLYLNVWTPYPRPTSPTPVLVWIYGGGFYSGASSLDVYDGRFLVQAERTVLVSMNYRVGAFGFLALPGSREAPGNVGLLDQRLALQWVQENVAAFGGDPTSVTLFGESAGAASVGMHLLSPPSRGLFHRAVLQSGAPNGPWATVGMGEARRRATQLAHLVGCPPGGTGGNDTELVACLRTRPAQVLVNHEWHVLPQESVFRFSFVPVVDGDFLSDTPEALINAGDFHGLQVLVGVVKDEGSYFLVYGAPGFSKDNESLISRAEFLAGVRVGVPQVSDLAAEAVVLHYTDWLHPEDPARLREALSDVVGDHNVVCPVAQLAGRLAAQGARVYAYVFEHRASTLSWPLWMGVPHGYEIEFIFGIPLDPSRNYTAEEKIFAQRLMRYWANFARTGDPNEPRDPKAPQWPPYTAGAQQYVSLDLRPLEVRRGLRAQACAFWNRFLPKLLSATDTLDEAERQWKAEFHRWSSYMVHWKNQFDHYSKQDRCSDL

With `O=C1O[C@H]([C@@H](O)CO)C(O)=C1O` [Ascorbic acid, reference compound], the midpoint of inhibition in experiment [1], the IC50, lay at 4.8 ± 0.01 µM.
As to `O=Cc1coc2cc3oc(-c4ccccc4)cc3cc2c1=O` [Compound 2a, 5-Oxo-2-phenyl-5H-furo[3,2-g]chromene-6-carbaldehyde], in experiment [2], the IC50 (commonly the concentration at which inhibition is half-maximal) was determined as 28.6 ± 0.01 µM and the “SI BChE/AChE” value is recorded as 0.43. Moreover, in experiment [3], it took 12.3 ± 0.02 µM to reach half-maximal inhibition (IC50) and the “SI AChE/BChE” value is reported as 2.33.
Turning to `O=Cc1coc2cc3oc(-c4cccc(F)c4)cc3cc2c1=O` [Compound 2b, 2-(3-Fluorophenyl)-5-oxo-5H-furo[3,2-g]chromene-6-carbaldehyde], in experiment [2], the 50% inhibitory concentration (IC50) turned out to be 5.4 ± 0.05 µM and the “SI BChE/AChE” value was 1.19. Also, in experiment [3], the IC50 came to 6.4 ± 0.04 µM and the “SI AChE/BChE” value is on record as 0.84. The concentration for half-maximal inhibition (IC50) in experiment [4] was determined as 21.6 ± 0.01 µM. In addition, inhibition in experiment [1] was half-maximal at 7.4 ± 0.01 µM (IC50). In experiment [5], the Ki (in general, a measure of affinity in units of concentration, obtained from inhibition or displacement) was determined as 1100 ± 20 nM and the “mode of inhibition against AChE” value was “non-competitive”. In experiment [6], the Ki stood at 1.7 ± 0.01 µM and the “mode of inhibition against BChE” value is “non-competitive”.
As to `O=Cc1coc2cc3oc(-c4ccc(F)cc4)cc3cc2c1=O` [Compound 2c, 2-(4-Fluorophenyl)-5-oxo-5H-furo[3,2-g]chromene-6-carbaldehyde], in experiment [2], the IC50 came out at 15.3 ± 0.01 µM and the “SI BChE/AChE” value was 1.03. In addition, in experiment [3], the half-maximal inhibitory concentration (IC50) amounted to 15.7 ± 0.02 µM and the “SI AChE/BChE” value worked out at 0.97.
The corresponding values for `O=Cc1coc2cc3oc(-c4cccc(Cl)c4)cc3cc2c1=O` [Compound 2d, 2-(3-Chlorophenyl)-5-oxo-5H-furo[3,2-g]chromene-6-carbaldehyde] are 33.4 ± 0.03 µM, 0.65, 21.6 ± 0.01 µM and 1.54.
`O=Cc1coc2cc3oc(-c4ccc(Cl)cc4)cc3cc2c1=O` [Compound 2e, 2-(4-Chlorophenyl)-5-oxo-5H-furo[3,2-g]chromene-6-carbaldehyde]: in experiment [2], the half-maximal inhibitory concentration (IC50) stood at 21.8 ± 0.03 µM. Besides, in experiment [3], the IC50 was 14 ± 0.04 µM and the “SI AChE/BChE” value is recorded as 1.61.
Take `COc1cc(OC)cc(-c2cc3cc4c(=O)c(C=O)coc4cc3o2)c1` [Compound 2g, 2-(3,5-Dimethoxyphenyl)-5-oxo-5H-furo[3,2-g]chromene-6-carbaldehyde]: in experiment [2], the 50% inhibitory concentration (IC50) came out at 10.8 ± 0.02 µM and the “SI BChE/AChE” value came out at 3.81. Besides, in experiment [3], the half-maximal inhibitory concentration (IC50) worked out at 41.2 ± 0.03 µM and the “SI AChE/BChE” value turned out to be 0.26.
The corresponding values for `Cc1ccc(-c2cc3cc4c(=O)c(C=O)coc4cc3o2)cc1` [Compound 2h, 5-Oxo-2-(p-tolyl)-5H-furo[3,2-g]chromene-6-carbaldehyde] are 12.9 ± 0.01 µM, 2.18, 28.1 ± 0.03 µM and 0.46.
For `O=Cc1coc2cc3oc(C4=CCCCC4)cc3cc2c1=O` [Compound 2i, 2-(Cyclohex-1-en-1-yl)-5-oxo-5H-furo[3,2-g]chromene-6-carbaldehyde] the same measures were 22.6 ± 0.03 µM, 1.54, 34.8 ± 0.02 µM and 0.65.
As for `O=c1c(C=NNc2ccc(C(F)(F)F)cc2)coc2cc3oc(-c4ccccc4)cc3cc12` [Compound 3a, 2-Phenyl-6-[(4-trifluoromethylphenyl)hydrazonomethyl]furo[3,2-g]chromen-5-one], in experiment [2], the IC50 came out at 18.4 ± 0.01 µM and the “SI BChE/AChE” value is recorded as 1.43. Moreover, in experiment [3], the half-maximal inhibitory concentration (IC50) was determined as 26.3 ± 0.02 µM and the “SI AChE/BChE” value came out at 0.70.
Regarding `O=c1c(C=NNc2ccc(C(F)(F)F)cc2)coc2cc3oc(-c4cccc(F)c4)cc3cc12` [Compound 3b, 2-(3-Fluorophenyl)-6-[(4-trifluoromethylphenyl)hydrazonomethyl]furo[3,2-g]chromen-5-one], in experiment [2], the half-inhibitory concentration (IC50) turned out to be 7.6 ± 0.03 µM and the “SI BChE/AChE” value came out at 1.47. Further, in experiment [3], the 50% inhibitory concentration (IC50) turned out to be 11.2 ± 0.02 µM and the “SI AChE/BChE” value turned out to be 0.68. The concentration for half-maximal inhibition (IC50) in experiment [4] was found to be 17.3 ± 0.03 µM. In addition, half-maximal inhibition in experiment [1] (IC50) was put at 21.8 ± 0.02 µM. In addition, in experiment [5], affinity was put at a Ki of 580 ± 40 nM and the “mode of inhibition against AChE” value is “non-competitive”. In addition, in experiment [6], the Ki came out at 6.1 ± 0.02 µM and the “mode of inhibition against BChE” value is “non-competitive”.
With `O=c1c(C=NNc2ccc(C(F)(F)F)cc2)coc2cc3oc(-c4ccc(F)cc4)cc3cc12` [Compound 3c, 2-(4-Fluorophenyl)-6-[(4-trifluoromethylphenyl)hydrazonomethyl]furo[3,2-g]chromen-5-one], in experiment [2], the IC50 is 21.2 ± 0.01 µM and the “SI BChE/AChE” value is reported as 0.67. In experiment [3], the 50% inhibitory concentration (IC50) is 14.1 ± 0.01 µM and the “SI AChE/BChE” value amounted to 1.49.
In the case of `O=c1c(C=NNc2ccc(C(F)(F)F)cc2)coc2cc3oc(-c4cccc(Cl)c4)cc3cc12` [Compound 3d, 2-(3-Chlorophenyl)-6-[(4-trifluoromethylphenyl)hydrazonomethyl]furo[3,2-g]chromen-5-one], in experiment [2], the IC50 came out at 18.3 ± 0.04 µM and the “SI BChE/AChE” value is 0.39. Moreover, in experiment [3], the 50% inhibitory concentration (IC50) was 7.2 ± 0.03 µM and the “SI AChE/BChE” value worked out at 2.56. In experiment [4], the IC50 was 32.8 ± 0.02 µM. This molecule also yielded an IC50 in experiment [1] of 20.9 ± 0.03 µM. Besides, in experiment [5], the Ki is 2500 ± 10 nM and the “mode of inhibition against AChE” value was “non-competitive”. Moreover, in experiment [6], affinity was put at a Ki of 0.85 ± 0.01 µM and the “mode of inhibition against BChE” value is “non-competitive”.
As for `O=c1c(C=NNc2ccc(C(F)(F)F)cc2)coc2cc3oc(-c4ccc(Cl)cc4)cc3cc12` [Compound 3e, 2-(4-Chlorophenyl)-6-[(4-trifluoromethylphenyl)hydrazonomethyl]furo[3,2-g]chromen-5-one], in experiment [2], the IC50 was 12.9 ± 0.02 µM and the “SI BChE/AChE” value came to 1.91. Also, in experiment [3], the IC50 is 24.6 ± 0.02 µM and the “SI AChE/BChE” value stood at 0.52.
For the molecule `COc1ccc(-c2cc3cc4c(=O)c(C=NNc5ccc(C(F)(F)F)cc5)coc4cc3o2)cc1` [Compound 3f, 2-(4-Methoxyphenyl)-6-[(4-trifluoromethylphenyl)hydrazonomethyl]furo[3,2-g]chromen-5-one], the 50% inhibitory concentration (IC50) is 5.4 ± 0.02 µM in experiment [2], 9.6 ± 0.05 µM in experiment [3], 25.3 ± 0.04 µM in experiment [4] and 23.9 ± 0.04 µM in experiment [1]. The “SI BChE/AChE” value in experiment [2] worked out at 1.78. For the same molecule, the “SI AChE/BChE” value in experiment [3] is on record as 0.56. Further, the inhibition constant Ki in experiment [5] amounted to 8160 ± 20 nM; in experiment [6] it was 5.4 ± 0.04 µM. In addition, the “mode of inhibition against AChE” value in experiment [5] was “non-competitive”. The “mode of inhibition against BChE” value in experiment [6] is listed as “competitive”. In addition, the “Vmax against BChE” value in experiment [6] (Lineweaver–Burk plots, substrate 0–5 µM) was found to be 0.013 ± 0.02.
As to `COc1cc(OC)cc(-c2cc3cc4c(=O)c(C=NNc5ccc(C(F)(F)F)cc5)coc4cc3o2)c1` [Compound 3g, 2-(3,5-Dimethoxyphenyl)-6-[(4-trifluoromethylphenyl)hydrazonomethyl]furo[3,2-g]chromen-5-one], in experiment [2], the 50% inhibitory concentration (IC50) turned out to be 34.9 ± 0.01 µM and the “SI BChE/AChE” value was determined as 0.89. Besides, in experiment [3], it took 31.2 ± 0.04 µM to reach half-maximal inhibition (IC50) and the “SI AChE/BChE” value was 1.12.
The corresponding values for `Cc1ccc(-c2cc3cc4c(=O)c(C=NNc5ccc(C(F)(F)F)cc5)coc4cc3o2)cc1` [Compound 3h, 2-(4-p-Tolyl)-6-[(4-trifluoromethylphenyl)hydrazonomethyl]furo[3,2-g]chromen-5-one] are 10.5 ± 0.03 µM, 3.37, 35.4 ± 0.015 µM and 0.30.
The corresponding values for `O=c1c(C=NNc2ccc(C(F)(F)F)cc2)coc2cc3oc(C4=CCCCC4)cc3cc12` [Compound 3i, 2-(Cyclohex-1-en-1-yl)-6-((2-(4-(trifluoromethyl)phenyl)hydrazono)methyl)-5H-furo[3,2-g]chromen-5-one] are 29.8 ± 0.01 µM, 1.04, 30.9 ± 0.02 µM and 0.96.
As for `COc1cccc2c1C(=O)c1c(O)c3c(c(O)c1C2=O)C[C@@](O)(C(=O)CO)C[C@@H]3O[C@H]1C[C@H](N)[C@H](O)[C@H](C)O1` [doxorubicin, doxorubicin hydrochloride, reference compound], the IC50 in experiment [7] turned out to be 1590 ± 10 nM.
